In ChEMBL document CHEMBL1221178, “Allosteric control of an ionotropic glutamate receptor with an optical switch” (Nat Chem Biol, 2006) one finds Activity data, which are given here for 3 compounds.

Activity calls are given as the source filed them. No cut-off for these calls is given here.

What all share (assay type): functional, cell-based
Assay [1] has as its system Glutamate receptor ionotropic, kainate 2 (Homo sapiens), Q13002 [L439C]. As to the kind of experiment: Agonist activity at MAG conjugated light activated iGluR6 L439C mutant expressed in human HEK293 cells assessed as increase inward currents by whole cell patch clamp method. On the technique in general: Patch clamp records ionic current or voltage across a cell membrane.

Assay [2] has the same test system. Kind of assay: Agonist activity at iGluR6 L439C mutant expressed in human HEK293 cells assessed as increase in intracellular Ca2+ levels illuminated at 380 nm wavelength by […] staining based fluorimetric method.
For assay [3] the test system is unchanged. As to the kind of experiment: Agonist activity at iGluR6 L439C mutant expressed in human HEK293 cells assessed as increase in intracellular Ca2+ levels illuminated at 500 nm wavelength by […] staining based fluorimetric method.

Glutamate receptor ionotropic, kainate 2 (Homo sapiens), Q13002 [L439C], sequence (Q13002 whole entry L439C): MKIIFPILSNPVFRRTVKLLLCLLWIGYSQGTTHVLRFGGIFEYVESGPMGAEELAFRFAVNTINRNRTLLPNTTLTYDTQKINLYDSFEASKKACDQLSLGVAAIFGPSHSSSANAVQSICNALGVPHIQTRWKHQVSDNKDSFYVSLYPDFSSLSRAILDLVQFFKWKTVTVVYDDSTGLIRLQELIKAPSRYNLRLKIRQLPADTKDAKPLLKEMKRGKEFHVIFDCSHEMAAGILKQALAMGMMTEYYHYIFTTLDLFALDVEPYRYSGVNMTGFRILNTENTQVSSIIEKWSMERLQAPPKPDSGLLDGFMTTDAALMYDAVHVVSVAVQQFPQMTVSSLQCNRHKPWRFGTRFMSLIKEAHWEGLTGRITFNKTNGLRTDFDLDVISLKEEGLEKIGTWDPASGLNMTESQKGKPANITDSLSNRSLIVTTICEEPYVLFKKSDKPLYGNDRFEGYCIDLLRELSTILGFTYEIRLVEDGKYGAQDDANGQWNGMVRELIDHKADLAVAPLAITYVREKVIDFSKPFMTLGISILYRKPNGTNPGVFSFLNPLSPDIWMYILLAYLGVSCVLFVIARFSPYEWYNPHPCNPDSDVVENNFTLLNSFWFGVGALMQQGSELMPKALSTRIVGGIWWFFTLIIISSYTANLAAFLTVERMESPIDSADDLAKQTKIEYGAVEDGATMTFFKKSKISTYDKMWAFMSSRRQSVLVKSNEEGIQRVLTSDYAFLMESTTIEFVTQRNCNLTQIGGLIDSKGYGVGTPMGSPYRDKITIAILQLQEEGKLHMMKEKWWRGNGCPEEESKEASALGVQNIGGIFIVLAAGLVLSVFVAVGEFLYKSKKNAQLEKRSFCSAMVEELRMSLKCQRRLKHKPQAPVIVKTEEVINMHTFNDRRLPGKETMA

As for `N[C@@H](C[C@@H](CCCC(=O)NCC(=O)Nc1ccccc1)C(=O)O)C(=O)O`, in assay [1], the result was Active.
On to `N[C@@H](C[C@@H](CCCC(=O)NCC(=O)Nc1ccc(/N=N/c2ccc(NC(=O)CN3C(=O)C=CC3=O)cc2)cc1)C(=O)O)C(=O)O`, for which the outcome in assay [2] was Active. Besides, the result in assay [3] was inactive.
With `N[C@@H](CCC(=O)O)C(=O)O`, in assay [1], the outcome was Active.
